This passage reports Ki results from patent publication US8580794B2 (AbbVie Inc., priority 2009, dated 2013).

pKi: −log10 of the molar value. Where two headings read alike, the source gives them in different places.

The assay concerns the target GST-Bc1-2 (Homo sapiens, UniProt P10415). The assay can be described thus: Time Resolved-Fluorescence Resonance Energy Transfer (TR-FRET) Bcl-2 binding assay with F-Bak peptide probe.
Setting [1] is: GST-Bcl-2 1 nM, F-Bak probe 100 nM, Tb-anti-GST 1 nM, '<' = below limit of detection, read-out: TR-FRET Bcl-2 Binding Ki.

GST-Bc1-2, sequence (P10415 whole entry): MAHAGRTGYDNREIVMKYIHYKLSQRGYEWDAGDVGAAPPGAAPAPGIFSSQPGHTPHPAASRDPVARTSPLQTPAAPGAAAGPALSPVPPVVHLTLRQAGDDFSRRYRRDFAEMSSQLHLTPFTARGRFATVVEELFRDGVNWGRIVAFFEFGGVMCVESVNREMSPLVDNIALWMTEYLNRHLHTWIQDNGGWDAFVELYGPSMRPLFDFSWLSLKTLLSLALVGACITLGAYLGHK

As for `O=C(NS(=O)(=O)c1ccc(OCC2(F)CCOCC2)c([N+](=O)[O-])c1)c1ccc(N2CCN(CC3=C(c4ccc(Cl)cc4)CCC4(CCCC4)C3)CC2)cc1Oc1cnc2[nH]ccc2c1` [Example 73, 4-(4-{[8-(4-chlorophenyl)spiro[4.5]dec-7-en-7-yl]methyl}piperazin-1-yl)-N-({4-[(4-fluorotetrahydro-2H-pyran-4-yl)methoxy]-3-nitrophenyl}sulfonyl)-2-(1H-pyrrolo[2,3-b]pyridin-5-yloxy)benzamide], the pKi under setting [1] was greater than 11.00.
Consider `CC1(C)CCC(c2ccc(Cl)cc2)=C(CN2CCN(c3ccc(C(=O)NS(=O)(=O)c4ccc(NCC5CCOCC5)c([N+](=O)[O-])c4)c(Oc4cnc5[nH]ccc5c4)c3)CC2)C1` [Example 75, 4-(4-{[2-(4-chlorophenyl)-5,5-dimethylcyclohex-1-en-1-yl]methyl}piperazin-1-yl)-N-({3-nitro-4-[(tetrahydro-2H-pyran-4-ylmethyl)amino]phenyl}sulfonyl)-2-(1H-pyrrolo[2,3-b]pyridin-5-yloxy)benzamide], for which the pKi under setting [1] was greater than 11.00.
As for `CC1(C)CCC(c2ccc(Cl)cc2)=C(CN2CCN(c3ccc(C(=O)NS(=O)(=O)c4cnc(OCC5CCOCC5)c(C#N)c4)c(Oc4cnc5[nH]ccc5c4)c3)CC2)C1` [Example 76, 4-(4-{[2-(4-chlorophenyl)-5,5-dimethylcyclohex-1-en-1-yl]methyl}piperazin-1-yl)-N-{[5-cyano-6-(tetrahydro-2H-pyran-4-ylmethoxy)pyridin-3-yl]sulfonyl}-2-(1H-pyrrolo[2,3-b]pyridin-5-yloxy)benzamide], under setting [1], the pKi is 9.71.
In the case of `CC1(C)CCC(CN2CCN(c3ccc(C(=O)NS(=O)(=O)c4ccc(OCC5COCCN5C(=O)OC(C)(C)C)c([N+](=O)[O-])c4)c(Oc4cnc5[nH]ccc5c4)c3)CC2)=C(c2ccc(Cl)cc2)C1` (stereo not shown) [Example 77, tert-butyl 3-{[4-({[4-(4-{[2-(4-chlorophenyl)-4,4-dimethylcyclohex-1-en-1-yl]methyl}piperazin-1-yl)-2-(1H-pyrrolo[2,3-b]pyridin-5-yloxy)benzoyl]amino}sulfonyl)-2-nitrophenoxy]methyl}morpholine-4-carboxylate], the pKi under setting [1] is 9.67.
Turning to `CC1(C)CCC(CN2CCN(c3ccc(C(=O)NS(=O)(=O)c4ccc(OCC5COCCN5)c([N+](=O)[O-])c4)c(Oc4cnc5[nH]ccc5c4)c3)CC2)=C(c2ccc(Cl)cc2)C1` (stereo not shown) [Example 78, 4-(4-{[2-(4-chlorophenyl)-4,4-dimethylcyclohex-1-en-1-yl]methyl}piperazin-1-yl)-N-{[4-(morpholin-3-ylmethoxy)-3-nitrophenyl]sulfonyl}-2-(1H-pyrrolo[2,3-b]pyridin-5-yloxy)benzamide], the pKi under setting [1] is greater than 11.00.
For the molecule `O=C(NS(=O)(=O)c1ccc(NCC2CCOCC2)c([N+](=O)[O-])c1)c1ccc(N2CCN(CC3=C(c4ccc(Cl)cc4)CCC4(CCCC4)C3)CC2)cc1Oc1cnc2[nH]ccc2c1` [Example 79, 4-(4-{[8-(4-chlorophenyl)spiro[4.5]dec-7-en-7-yl]methyl}piperazin-1-yl)-N-({3-nitro-4-[(tetrahydro-2H-pyran-4-ylmethyl)amino]phenyl}sulfonyl)-2-(1H-pyrrolo[2,3-b]pyridin-5-yloxy)benzamide], under setting [1], the pKi is greater than 11.00.
Turning to `CC1(C)CCC(CN2CCN(c3ccc(C(=O)NS(=O)(=O)c4ccc(NC5CCN(S(C)(=O)=O)CC5)c([N+](=O)[O-])c4)c(Oc4cnc5[nH]ccc5c4)c3)CC2)=C(c2ccc(Cl)cc2)C1` [Example 80, 4-(4-{[2-(4-chlorophenyl)-4,4-dimethylcyclohex-1-en-1-yl]methyl}piperazin-1-yl)-N-[(4-{[1-(methylsulfonyl)piperidin-4-yl]amino}-3-nitrophenyl)sulfonyl]-2-(1H-pyrrolo[2,3-b]pyridin-5-yloxy)benzamide], the pKi under setting [1] is greater than 11.00.
The same measure, in the same setting: the same measure for `CC1(C)CCC(CN2CCN(c3ccc(C(=O)NS(=O)(=O)c4ccc(NC5CCS(=O)(=O)CC5)c([N+](=O)[O-])c4)c(Oc4cnc5[nH]ccc5c4)c3)CC2)=C(c2ccc(Cl)cc2)C1` [Example 81, 4-(4-{[2-(4-chlorophenyl)-4,4-dimethylcyclohex-1-en-1-yl]methyl}piperazin-1-yl)-N-({4-[(1,1-dioxidotetrahydro-2H-thiopyran-4-yl)amino]-3-nitrophenyl}sulfonyl)-2-(1H-pyrrolo[2,3-b]pyridin-5-yloxy)benzamide]: greater than 11.00.
As for `CC1(C)CCC(CN2CCN(c3ccc(C(=O)NS(=O)(=O)c4ccc(Cl)c([N+](=O)[O-])c4)c(Oc4cnc5[nH]ccc5c4)c3)CC2)=C(c2ccc(Cl)cc2)C1` [Example 82, N-[(4-chloro-3-nitrophenyl)sulfonyl]-4-(4-{[2-(4-chlorophenyl)-4,4-dimethylcyclohex-1-en-1-yl]methyl}piperazin-1-yl)-2-(1H-pyrrolo[2,3-b]pyridin-5-yloxy)benzamide], under setting [1], the pKi is 9.48.
On the same count and under the same terms, the same measure for `CC1(C)CCC(CN2CCN(c3ccc(C(=O)NS(=O)(=O)c4ccc(NC5CCN(CC(F)(F)F)CC5)c([N+](=O)[O-])c4)c(Oc4cnc5[nH]ccc5c4)c3)CC2)=C(c2ccc(Cl)cc2)C1` [Example 83, 4-(4-{[2-(4-chlorophenyl)-4,4-dimethylcyclohex-1-en-1-yl]methyl}piperazin-1-yl)-N-[(3-nitro-4-{[1-(2,2,2-trifluoroethyl)piperidin-4-yl]amino}phenyl)sulfonyl]-2-(1H-pyrrolo[2,3-b]pyridin-5-yloxy)benzamide]: 10.15; for `CC1(C)CCC(CN2CCN(c3ccc(C(=O)NS(=O)(=O)c4cnc(OC5CCN(C6CCOCC6)CC5)c(C#N)c4)c(Oc4cnc5[nH]ccc5c4)c3)CC2)=C(c2ccc(Cl)cc2)C1` [Example 84, 4-(4-{[2-(4-chlorophenyl)-4,4-dimethylcyclohex-1-en-1-yl]methyl}piperazin-1-yl)-N-({5-cyano-6-[(1-tetrahydro-2H-pyran-4-ylpiperidin-4-yl)oxy]pyridin-3-yl}sulfonyl)-2-(1H-pyrrolo[2,3-b]pyridin-5-yloxy)benzamide]: 9.91; for `CC(C)c1cc(S(=O)(=O)NC(=O)c2ccc(N3CCN(CC4=C(c5ccc(Cl)cc5)CC(C)(C)CC4)CC3)cc2Oc2cnc3[nH]ccc3c2)cnc1OCC1CCOCC1` [Example 85, 4-(4-{[2-(4-chlorophenyl)-4,4-dimethylcyclohex-1-en-1-yl]methyl}piperazin-1-yl)-N-{[5-isopropyl-6-(tetrahydro-2H-pyran-4-ylmethoxy)pyridin-3-yl]sulfonyl}-2-(1H-pyrrolo[2,3-b]pyridin-5-yloxy)benzamide]: 9.41.
Regarding `CC1(C)CCC(CN2CCN(c3ccc(C(=O)NS(=O)(=O)c4cc(F)c(NCC5CCOCC5)c(Cl)c4)c(Oc4cnc5[nH]ccc5c4)c3)CC2)=C(c2ccc(Cl)cc2)C1` [Example 86, N-({3-chloro-5-fluoro-4-[(tetrahydro-2H-pyran-4-ylmethyl)amino]phenyl}sulfonyl)-4-(4-{[2-(4-chlorophenyl)-4,4-dimethylcyclohex-1-en-1-yl]methyl}piperazin-1-yl)-2-(1H-pyrrolo[2,3-b]pyridin-5-yloxy)benzamide], under setting [1], the pKi is 9.30.
As for `O=C(NS(=O)(=O)c1ccc(NCCCN2CCOCC2)c([N+](=O)[O-])c1)c1ccc(N2CCN(Cc3ccccc3-c3ccc(Cl)cc3)CC2)cc1Oc1ccc2[nH]ccc2c1` [Example 88, 4-{4-[(4′-chloro-1,1′-biphenyl-2-yl)methyl]piperazin-1-yl}-2-(1H-indol-5-yloxy)-N-({4-[(3-morpholin-4-ylpropyl)amino]-3-nitrophenyl}sulfonyl)benzamide], the pKi under setting [1] was 9.17.
In the case of `CN1CCC(Nc2ccc(S(=O)(=O)NC(=O)c3ccc(N4CCN(CC5=C(c6ccc(Cl)cc6)CC(C)(C)CC5)CC4)cc3Oc3ccc4[nH]ccc4c3)cc2[N+](=O)[O-])CC1` [Example 90, 4-(4-{[2-(4-chlorophenyl)-4,4-dimethylcyclohex-1-en-1-yl]methyl}piperazin-1-yl)-2-(1H-indol-5-yloxy)-N-({4-[(1-methylpiperidin-4-yl)amino]-3-nitrophenyl}sulfonyl)benzamide], the pKi (TR-FRET Bcl-2 Binding Ki) is 10.89 and the pKi (read-out: Bcl-2 FRET ki) was 10.89.
Consider `CN1CCN(Nc2ccc(S(=O)(=O)NC(=O)c3ccc(N4CCN(CC5=C(c6ccc(Cl)cc6)CC(C)(C)CC5)CC4)cc3Oc3ccc4[nH]ccc4c3)cc2[N+](=O)[O-])CC1` [Example 91, 4-(4-{[2-(4-chlorophenyl)-4,4-dimethylcyclohex-1-en-1-yl]methyl}piperazin-1-yl)-2-(1H-indol-5-yloxy)-N-({4-[(4-methylpiperazin-1-yl)amino]-3-nitrophenyl}sulfonyl)benzamide], for which the pKi is, setting by setting: (TR-FRET Bcl-2 Binding Ki) 9.31; (read-out: Bcl-2 FRET ki) 9.31.
With `CC1(C)CCC(CN2CCN(c3ccc(C(=O)NS(=O)(=O)c4ccc(OCC5COCCO5)c([N+](=O)[O-])c4)c(Oc4ccc5[nH]ccc5c4)c3)CC2)=C(c2ccc(Cl)cc2)C1` (stereo not shown) [Example 92, 4-(4-{[2-(4-chlorophenyl)-4,4-dimethylcyclohex-1-en-1-yl]methyl}piperazin-1-yl)-N-{[4-(1,4-dioxan-2-ylmethoxy)-3-nitrophenyl]sulfonyl}-2-(1H-indol-5-yloxy)benzamide], the pKi by setting is: (TR-FRET Bcl-2 Binding Ki) 9.89; (read-out: Bcl-2 FRET Ki) 9.89; (read-out: Bcl-2 FRET ki) 9.89.
In the case of `COCCNc1ccc(S(=O)(=O)NC(=O)c2ccc(N3CCN(CC4=C(c5ccc(Cl)cc5)CC(C)(C)CC4)CC3)cc2Oc2ccc3[nH]ccc3c2)cc1S(=O)(=O)C(F)(F)F` [Example 93, 4-(4-{[2-(4-chlorophenyl)-4,4-dimethylcyclohex-1-en-1-yl]methyl}piperazin-1-yl)-2-(1H-indol-5-yloxy)-N-({4-[(2-methoxyethyl)amino]-3-[(trifluoromethyl)sulfonyl]phenyl}sulfonyl)benzamide], the pKi under setting [1] is 8.46 and the pKi (read-out: Bcl-2 FRET ki) was 7.46.
On to `CC1(C)CCC(CN2CCN(c3ccc(C(=O)NS(=O)(=O)c4ccc(NCC5CCOCC5)c(S(=O)(=O)C(F)(F)F)c4)c(Oc4ccc5[nH]ccc5c4)c3)CC2)=C(c2ccc(Cl)cc2)C1` [Example 94, 4-(4-{[2-(4-chlorophenyl)-4,4-dimethylcyclohex-1-en-1-yl]methyl}piperazin-1-yl)-2-(1H-indol-5-yloxy)-N-({4-[(tetrahydro-2H-pyran-4-ylmethyl)amino]-3-[(trifluoromethyl)sulfonyl]phenyl}sulfonyl)benzamide], for which the pKi is 9.17 (TR-FRET Bcl-2 Binding Ki) and 9.17 (read-out: Bcl-2 FRET ki).

Broadly, the pKi is the negative decadic logarithm of the Ki, by convention in mol/L.
